Assay results published in PubChem BioAssay (NCI).
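Protocol summary: plate cells (96-well), add compound at 5 concentrations, incubate 48 h, interpolate endpoints linearly. GI50 marks 50% less growth. TGI is the concentration that stops growth completely.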

Key:
Assay in all cases: growth of human tumour cells (NCI), 48 h
[1] = tested on: OVCAR-8 ovarian
[2] = tested on: SR leukemia
[3] = tested on: NCI/ADR-RES ovarian
[4] = tested on: IGROV1 ovarian
[5] = tested on: MALME-3M melanoma
[6] = tested on: MDA-N
[7] = tested on: CCRF-CEM leukemia
[8] = tested on: KM12 colon
[9] = tested on: NCI-H226 lung
[10] = tested on: MCF7 breast

SMILES | TGI [1] | TGI [2] | TGI [3] | TGI [4] | TGI [5] | TGI [6] | TGI [7] | TGI [8] | TGI [9] | TGI [10] | GI50 [9] | GI50 [1] | GI50 [2] | GI50 [3] | GI50 [4] | GI50 [5] | GI50 [10] | GI50 [7] | GI50 [8]
O=c1[nH]nc(-c2ccccc2)c2[nH]c(-c3ccccc3)cc12 | > 100 µM | > 100 µM | > 100 µM | > 100 µM | > 100 µM | > 100 µM | > 100 µM | > 100 µM |  |  |  |  |  |  |  |  |  |  | 
CCOC(=O)/C(C#N)=N\Nc1ccc(-n2c(C)nc3ccccc3c2=O)cc1 | > 100 µM | > 100 µM | 86.8 µM | > 100 µM |  | > 100 µM | > 100 µM | > 100 µM | > 100 µM | > 100 µM |  |  |  |  |  |  |  |  | 
CC(=O)OCC(OC(C)=O)C1C[C@H]2O[C@@H]3[C@H](C[C@H]2O1)O[C@@]1(C[C@@H]3C)C[C@H](C)[C@@H]2O[C@]3(C[C@@H]2O1)C[C@H]1O[C@H]2[C@H](C)[C@H]4OC(=O)CC5CC[C@H]6OC7[C@H]8O[C@]9(CC[C@H]%10CC(O)(CO)[C@H](CC[C@H]%11C[C@@H](C)C(O)(CO)C(C[C@@H]4O[C@H]2C[C@H]1O3)O%11)O%10)CC8O[C@@H]7[C@@H](O9)[C@H]6O5 (some centres not stated) | > 0.271 µM | > 1 µM | > 0.205 µM | > 1 µM | > 1 µM |  | > 1 µM | > 0.333 µM | 0.142 µM | > 1 µM |  |  |  |  |  |  |  |  | 
Cc1cn(C(C)OCCN2C(=O)c3ccccc3C2=O)c(=O)[nH]c1=O (configuration not stated) | > 100 µM | > 100 µM | > 100 µM | > 100 µM |  | > 100 µM | > 100 µM | > 100 µM | > 100 µM | > 100 µM |  |  |  |  |  |  |  |  | 
OC1(c2ccc(Cl)cc2)c2ccc3ccccc3c2C2=N[C@H]3CCCC[C@@H]3N21 (some centres not stated) | 3.45 µM |  | 5.99 µM | > 100 µM | 0.93 µM | > 100 µM | 79.9 µM | > 100 µM | > 100 µM | > 100 µM |  |  |  |  |  |  |  |  | 
CC1(C(=O)O)CCCC1C(=O)O (configuration not stated) | > 100 µM |  | > 100 µM | > 100 µM | > 100 µM | > 100 µM | > 100 µM | > 100 µM | > 100 µM |  |  |  |  |  |  |  |  |  | 
COc1c(Br)cc(CC(N)=O)c(O)c1Br | > 100 µM | > 100 µM |  | > 100 µM | > 100 µM |  | > 100 µM | > 100 µM | > 100 µM |  |  |  |  |  |  |  |  |  | 
COCC1OC(N2C(=O)NC(=O)[C@@H]3C=C4CCCCC4=C[C@@H]32)C(OC)C1OC (some centres not stated) | > 100 µM | > 100 µM | > 100 µM | > 100 µM | > 100 µM | > 100 µM |  | > 100 µM | > 100 µM | > 100 µM |  |  |  |  |  |  |  |  | 
CC1S/C(=N/c2nnc(-c3ccccc3)o2)NC1=O (configuration not stated) | > 100 µM |  | > 100 µM | > 100 µM | > 100 µM | > 100 µM | > 100 µM | > 100 µM | > 100 µM | > 100 µM |  |  |  |  |  |  |  |  | 
Cc1cc2[nH]c3c(C#N)c4c(c(=O)n3c2cc1C)CCCC4 | > 100 µM |  | > 100 µM | > 100 µM | > 100 µM | > 100 µM | > 100 µM | > 100 µM | > 100 µM | > 100 µM |  |  |  |  |  |  |  |  | 
CCN1CCC(O)(C(C(=O)O)c2ccccc2)CC1 (configuration not stated) | > 100 µM | > 100 µM | > 100 µM | > 100 µM | > 100 µM |  | > 100 µM | > 100 µM | > 100 µM | > 100 µM |  |  |  |  |  |  |  |  | 
COC(=O)C1=Nc2c(C)nn(-c3ccccc3)c2N=C(c2ccc([N+](=O)[O-])cc2)C1 | > 10 µM | > 10 µM | > 10 µM | > 10 µM | > 10 µM | > 10 µM | > 10 µM | > 10 µM |  | > 10 µM |  |  |  |  |  |  |  |  | 
CC1(C)OCC2OC3([C@H]4OC(C)(C)O[C@@H]4CO)OC(C)(C)OC3C2O1 (some centres not stated) | > 100 µM | > 100 µM | > 100 µM | > 100 µM |  | > 100 µM | > 100 µM | > 100 µM | > 100 µM | > 100 µM |  |  |  |  |  |  |  |  | 
COc1ccc2c(c1)CC1=C(O2)c2ccc(OC)cc2OC1 | 78.2 µM | > 100 µM | > 100 µM | > 100 µM | 45.5 µM | 38.4 µM | > 100 µM | > 100 µM | > 100 µM |  |  |  |  |  |  |  |  |  | 
COC(=O)C1CC2(c3ccccc3)C(=O)c3ccccc3N2O1 (configuration not stated) | > 100 µM | 65.3 µM |  | > 100 µM | > 100 µM |  | > 100 µM | > 100 µM | > 100 µM |  |  |  |  |  |  |  |  |  | 
N#Cc1c(-c2ccc(F)cc2)nc(N/N=C/c2c[nH]c3ccccc23)nc1N1CCOCC1 | 93.8 µM | 24 µM | > 100 µM | 79.7 µM | 4.76 µM |  | > 100 µM | 68.9 µM | 88 µM | 57.4 µM | 24.2 µM | 7.63 µM | 0.215 µM | 13.2 µM | 12.8 µM | 2.75 µM | 4.56 µM | 3.43 µM | 4.96 µM
O=[N+]([O-])c1ccc(-c2ccc(-c3csc(Nc4ccccn4)n3)o2)cc1 | > 100 µM | > 100 µM |  | > 100 µM | > 100 µM |  |  | > 100 µM |  |  |  |  |  |  |  |  |  |  | 
COc1ccc(-c2c(C#N)c(N)nc3c2CCS(=O)(=O)c2ccccc2-3)cc1 | > 100 µM | > 100 µM | > 100 µM | > 100 µM | > 100 µM |  | > 100 µM | > 100 µM | > 100 µM |  |  |  |  |  |  |  |  |  | 
O=C(O)C(CS)N=c1c2ccccc2n(O)c2ccccc12 (configuration not stated) | > 100 µM |  |  | > 100 µM | > 100 µM |  | > 100 µM | > 100 µM | > 100 µM |  |  |  |  |  |  |  |  |  | 
COc1ccc2c(c1)CN1C(=N2)CSC1c1ccccc1Cl (configuration not stated) | 43.2 µM | 27 µM | 53.8 µM | 42.2 µM | 47.9 µM | 36.1 µM |  | 34.8 µM | 31.3 µM | > 100 µM |  |  |  |  |  |  |  |  | 
Cc1cc2ncc3c(=O)n(NS(=O)(=O)c4ccc(N)cc4)ccc3n2n1 | > 100 µM |  |  | > 100 µM | > 100 µM | > 100 µM | > 100 µM | > 100 µM | > 100 µM | > 100 µM |  |  |  |  |  |  |  |  | 
O=C1C=CC(=O)c2c(O)c(NCCc3ccc(O)cc3)c(Cl)c(O)c21 | > 10 µM |  | > 10 µM | > 10 µM | > 10 µM | > 10 µM | > 10 µM | > 10 µM | > 10 µM | > 10 µM |  |  |  |  |  |  |  |  | 
